From EP4567031A1, “HPK1 INHIBITOR, PREPARATION METHOD THEREFOR, AND USE THEREOF” (Beijing Earthwise Technology Co., Ltd., priority 2022, dated 2024)

How the values were obtained:
HPK1 = HPK1 (Homo sapiens, UniProt Q92918); assay: HPK1 HTRF kinase assay; type: biochemical; details: 1000 µM ATP; 50 nM HPK1; STK1 substrate; read-out: HPK1, IC50
Procedure: The reaction was initiated by adding 50 nM HPK1. After 120 minutes of reaction, the assay was terminated by adding 10 µL of Detection Mix.
The ratio of the signal at 665 nm to the signal at 615 nm was converted to the percentage of inhibition. Inhibition % = (maximum value - sample value) / (maximum value - minimum value)×100. The minimum value refers to the value measured in a well without enzyme but with DMSO and substrate, and the maximum value refers to the value measured in a well with DMSO, enzyme and substrate. IC50 values were calculated by XLFit (version 5.3.1.3) in Excel. Equation: Y = Bottom + (Top - Bottom) / (1 + (IC50/X) ^ HillSlope).

human Pan T cells = assay: Human Pan T cell IL-2 ELISA; type: cell-based; details: Homo sapiens, T-cell, 48 h, Anti-CD3 and Anti-CD28, supernatant IL-2 ELISA, read-out: IL-2 release, EC50
Method in brief: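 Human Pan T cells (1×10^6 cells/ml) stimulated with plate-bound anti-CD3 plus anti-CD28 and treated 48 h with compound at 9 final concentrations, 39.063–10000 nM. Supernatant IL-2 by ELISA, expressed as fold over DMSO wells; EC50 from four-parameter logistic fit.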

HPK1, sequence (Q92918 whole entry, species assumed): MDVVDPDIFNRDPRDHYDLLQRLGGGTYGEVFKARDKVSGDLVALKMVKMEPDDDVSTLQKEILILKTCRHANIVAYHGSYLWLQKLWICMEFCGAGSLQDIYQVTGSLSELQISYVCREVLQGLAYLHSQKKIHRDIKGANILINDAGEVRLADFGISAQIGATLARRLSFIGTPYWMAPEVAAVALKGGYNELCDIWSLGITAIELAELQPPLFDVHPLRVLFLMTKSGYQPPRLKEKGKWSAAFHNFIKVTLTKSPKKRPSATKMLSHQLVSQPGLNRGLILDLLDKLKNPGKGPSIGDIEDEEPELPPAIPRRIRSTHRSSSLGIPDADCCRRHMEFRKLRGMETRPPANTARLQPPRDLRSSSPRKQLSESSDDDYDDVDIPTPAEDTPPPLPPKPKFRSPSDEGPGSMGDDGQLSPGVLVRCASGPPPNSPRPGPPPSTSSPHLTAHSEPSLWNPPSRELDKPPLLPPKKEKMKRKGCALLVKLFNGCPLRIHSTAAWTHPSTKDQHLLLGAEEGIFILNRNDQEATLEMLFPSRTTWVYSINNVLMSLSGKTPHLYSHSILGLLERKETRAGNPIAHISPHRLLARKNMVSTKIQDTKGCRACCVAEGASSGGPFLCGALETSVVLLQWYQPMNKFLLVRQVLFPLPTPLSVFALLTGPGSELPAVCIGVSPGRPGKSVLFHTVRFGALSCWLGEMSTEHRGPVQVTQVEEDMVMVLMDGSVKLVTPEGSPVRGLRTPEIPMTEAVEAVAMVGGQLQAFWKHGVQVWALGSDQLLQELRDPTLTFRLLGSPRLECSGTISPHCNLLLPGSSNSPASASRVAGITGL

Cc1cnc2c(-c3cc4c(c5c3CNC5=O)Nc3ccc(N5CCOCC5)cc3C4(C)C)cnn2c1 [Example 61]
IC50 (HPK1): 0.00855 µM
EC50 (human Pan T cells): 0.0177 µM

CC1(C)c2cc(NC(=O)CC3CC3)ccc2Nc2c1cc(-c1cnn3cccnc13)c1c2C(=O)NC1 [Example 56]
IC50 (HPK1): 0.0115 µM
EC50 (human Pan T cells): 0.028 µM

CC1(C)c2cc(N3CCOCC3)ccc2Nc2c1cc(-c1cnn3cnccc13)c1c2C(=O)NC1 [Example 53]
IC50 (HPK1): 0.00797 µM
EC50 (human Pan T cells): 0.00554 µM

COC1CCCn2c(-c3cc4c(c5c3CNC5=O)Nc3ccc(N5CCOCC5)cc3C4(C)C)cnc21 (centres unmarked) [Example 69]
IC50 (HPK1): 0.00686 µM
EC50 (human Pan T cells): 0.0114 µM

CC1(C)c2cc(CN3CCN(CC4CC4)CC3)ccc2Nc2c1cc(-c1cnn3cccnc13)c1c2C(=O)NC1 [Example 72]
IC50 (HPK1): 0.00213 µM
EC50 (human Pan T cells): 0.0181 µM

Cc1ccnn2c(-c3cc4c(c5c3CNC5=O)Nc3ccc(N5CCOCC5)cc3C4(C)C)cnc12 [Example 54]
IC50 (HPK1): 0.00381 µM
EC50 (human Pan T cells): 0.00653 µM

CC1(C)c2cc(N3CCOCC3)ncc2Nc2c1cc(-c1cnn3cccnc13)c1c2C(=O)NC1 [Example 26]
IC50 (HPK1): 0.0145 µM
EC50 (human Pan T cells): 0.0149 µM

Cc1cc(-c2cc3c(c4c2CNC4=O)Nc2ccc(N4CCOCC4)cc2C3(C)C)cc(=O)[nH]1 [Example 81]
IC50 (HPK1): 0.00631 µM
EC50 (human Pan T cells): 0.0358 µM

CC1(C)c2cc(N3CCOCC3)ccc2Nc2c1cc(-c1cnn3ccncc13)c1c2C(=O)NC1 [Example 35]
IC50 (HPK1): 0.0128 µM
EC50 (human Pan T cells): 0.0145 µM

Cn1ccc2c(-c3cc4c(c5c3CNC5=O)Nc3ccc(N5CCOCC5)cc3C4(C)C)cncc21 [Example 38]
IC50 (HPK1): 0.0123 µM
EC50 (human Pan T cells): 0.0047 µM

CC1(C)c2cc(N3CCOC(C(C)(C)O)C3)ccc2Nc2c1cc(-c1cnn3cccnc13)c1c2C(=O)NC1 (centres unmarked) [Example 22]
IC50 (HPK1): 0.0112 µM
EC50 (human Pan T cells): 0.0022 µM

COc1ccnn2c(-c3cc4c(c5c3CNC5=O)Nc3ccc(N5CCOC(C(C)(C)O)C5)cc3C4(C)C)cnc12 (centres unmarked) [Example 24]
IC50 (HPK1): 0.0118 µM
EC50 (human Pan T cells): 0.00183 µM

COc1cncc2c(-c3cc4c(c5c3CNC5=O)Nc3ccc(N5CCOCC5)cc3C4(C)C)cnn12 [Example 76]
IC50 (HPK1): 0.00873 µM
EC50 (human Pan T cells): 0.0504 µM

COc1cccc2c(-c3cc4c(c5c3CNC5=O)Nc3cnc(N5CCOCC5)cc3C4(C)C)cnn12 [Example 27]
IC50 (HPK1): 0.0117 µM
EC50 (human Pan T cells): 0.00179 µM

CC1(C)c2cc(CN3CCOCC3)ccc2Nc2c1cc(-c1cnn3cccnc13)c1c2C(=O)NC1 [Example 51]
IC50 (HPK1): 0.0114 µM
EC50 (human Pan T cells): 0.0588 µM

CC1(C)c2cc(N3CCOCC3)ccc2Nc2c1cc(-c1cnc3n1CCOC3)c1c2C(=O)NC1 [Example 79]
IC50 (HPK1): 0.00636 µM
EC50 (human Pan T cells): 0.0195 µM

CN1CCN(Cc2ccc3c(c2)C(C)(C)c2cc(-c4cnn5cccnc45)c4c(c2N3)C(=O)NC4)CC1 [Example 50]
IC50 (HPK1): 0.00871 µM
EC50 (human Pan T cells): 0.019 µM

CC1(C)c2cc(N3CCOCC3)ccc2Nc2c1cc(-c1cnn3ccccc13)c1c2C(=O)NC1 [Example 37]
IC50 (HPK1): 0.00798 µM
EC50 (human Pan T cells): 0.00227 µM

Cn1ccc(-c2cc3c(c4c2CNC4=O)Nc2ccc(N4CCOC(C(C)(C)O)C4)cc2C3(C)C)cc1=O (centres unmarked) [Example 32]
IC50 (HPK1): 0.0164 µM
EC50 (human Pan T cells): 0.0123 µM

CC1(C)c2cc(NC(=O)COCCO)ccc2Nc2c1cc(-c1cnn3cccnc13)c1c2C(=O)NC1 [Example 92]
IC50 (HPK1): 0.00764 µM
EC50 (human Pan T cells): 0.0682 µM

CC1CCn2c(-c3cc4c(c5c3CNC5=O)Nc3ccc(N5CCOCC5)cc3C4(C)C)cnc2C1 (centres unmarked) [Example 65]
IC50 (HPK1): 0.00859 µM
EC50 (human Pan T cells): 0.028 µM

Cc1ncc(-c2cc3c(c4c2CNC4=O)Nc2ccc(N4CCOCC4)cc2C3(C)C)n1C [Example 87]
IC50 (HPK1): 0.00788 µM
EC50 (human Pan T cells): 0.00897 µM

COc1nccn2c(-c3cc4c(c5c3CNC5=O)Nc3ccc(N5CCOCC5)cc3C4(C)C)cnc12 [Example 63]
IC50 (HPK1): 0.00548 µM
EC50 (human Pan T cells): 0.00498 µM

CC1(C)c2cc(CN3CCNCC3)ccc2Nc2c1cc(-c1cnn3cccnc13)c1c2C(=O)NC1 [Example 57]
IC50 (HPK1): 0.011 µM
EC50 (human Pan T cells): 0.0271 µM

CC1(C)c2cc(N3CCOCC3)c(C(F)F)cc2Nc2c1cc(-c1cnn3cccnc13)c1c2C(=O)NC1 [Example 73]
IC50 (HPK1): 0.00787 µM
EC50 (human Pan T cells): 0.0289 µM
